According to patent publication US7635719B2, “Use of adamatyl methoxydiphenyl propenoic acid for the treatment of acne” (Sigma-Tau Industrie Farmaceutiche Riunite S.p.A., priority 2005, dated 2009):

Key:
[1] = Body weight of rhino mice treated with ST1898 (Formulation 2) or adapalene; assay type: in vivo, rhino (RHJ/LeJ) mice
Method: (§1) 30 rhino (RHJ/LeJ) mice (Jackson Laboratory), 15 male and 15 female (6-8 weeks of age) were subdivided in 6 mice/group. Two groups were treated with ST1898 (Formulation 2) (0.1% and 0.05% in the vehicle), a group with adapalene (Differin® gel), used as reference compound (0.1%), a group with the vehicle (the same of the formulation of Differin® gel: carbomer 980, propylene glycol, poloxamer, disodium edentate, methyl hydroxybenzoate, phenoxyethanol, sodium hydroxide and purified water).
A topical application on the dorsal skin (massage for 30-45 sec) was performed of 50 μl applied with a gloved finger. The treatment was done once daily for 5 consecutive days/week (excluding Saturdays and Sundays) for 3 consecutive weeks.
During the treatment, the body weight of mice was recorded to control the healthy status of mice. No significative variation in body weight was found (table 2).
Mice were sacrificed 3 days after the last treatment. The vehicle used for ST1898 (Formulation 2) was the same of Differin gel (carbomer 980, propylene glycol, poloxamer, disodium edentate, methyl hydroxybenzoate, phenoxyethanol, sodium hydroxide and purified water).

[2] = test system: epidermal utriculi (comedones) of rhino mice; test: Comedolytic action of ST1898 (Formulation 2) on epidermal pseudocomedones in rhino mice; assay type: in vivo, rhino (RHJ/LeJ) mice
Method: Formulations: ST1898 0.1 and 0.05% in the vehicle.
Vehicle: carbomer 980, propylene glycol, poloxamer, disodium edentate, methyl hydroxybenzoate, phenoxyethanol, sodium hydroxide and purified water).
Adapalene (Differin Gel®) was used as reference compound (0.1%).
as §1
A group was not treated (control). The drugs (50 μl) were applied with a sterile gloved finger topically on the dorsal skin (massage for 30-45 sec), once daily for 5 consecutive days/week (excluding Saturdays and Sundays) for 3 consecutive […]. Three days after the last application, mice were sacrificed by cervical dislocation. Two skin punch biopsies (6 mm) were taken immediately after death from all sacrificed animals. The biopsies were formalin-fixed (10% buffered formalin solution) and paraffin-embedded.
Quantitative histological image analysis was evaluated as the total number of epidermal utriculi (comedones) per centimeter of stratum corneum length, the comedo profile, and the epidermal thickness. From one biopsy, three 3-μm thick skin sections were obtained at 150 μm intervals and were stained with hematoxylin-eosin. The second biopsy was kept stored for records.
Assisted computer morphometric analysis of the stained skin sections was performed using a Zeiss KS300.3 system (parameters n. 1, 3 and 4). For total length of the stratum corneum measurement a micrometric equipment was used. The following microscopic parameters were measured:
1) on each open epidermal utriculum/comedo the largest diameter or diameter taken at half depth (D) and diameter of the surface orifice (d),
2) length of the three sections, taken as total length of the stratum corneum,
3) total number of epidermal utriculi/comedones in the three sections,
4) in interfollicular areas, surface (S) of the epidermis and length (L) of the corresponding basal layer.
1) number of utriculi/(comedones)/length of stratum corneum (cm);
2) Comedo profile, calculated as r=d/D,
3) epidermal thickness, calculated as S/L in […]m.
A topical application on the dorsal skin (massage for 30-45 sec) was performed of 50 μl applied with a gloved finger. The treatment was done once daily for 5 consecutive days/week (excluding Saturdays and Sundays) for 3 consecutive weeks. […]

COc1ccc(-c2ccc3cc(C(=O)O)ccc3c2)cc1C12CC3CC(CC(C3)C1)C2 [Adapalene, reference compound]
Initial body weight gr ± SE ([1]; 0.1% group, before treatment): 21.3 ± 1.1 gr
Body weight loss max (%) ([1]; 0.1% topical qdx5/wx3w): 4%
Final body weight gr ± SE ([1]; 0.1% topical qdx5/wx3w): 21.2 ± 1.3 gr
Comedones (n/cm) ([2]; 0.1% gel (Formulation 2 / Differin gel), topical 50 μl qdx5/wx3w, mean ± SD, untreated 57.35, vehicle 57.27): 28.31 ± 2.92 n/cm
Comedo profile (r = d/D) ([2]; 0.1% gel, topical 50 μl qdx5/wx3w, mean ± SD, untreated 0.62, vehicle 0.61): 1.24 ± 0.11
Epidermal thickness (μm) ([2]; 0.1% gel, topical 50 μl qdx5/wx3w, mean ± SD, untreated 20.90, vehicle 20.56): 57.33 ± 9.99 μm
Histological analysis: interfollicular epidermis (in words) ([2]; skin of treated rhino mice): hyperplasia of interfollicular epidermis
